The values below come from patent US12065443B2, “Compounds and pharmaceutical compositions thereof for the treatment of diseases” (priority 2017, dated 2024).

The structures appear in SMILES notation.

Test [1] concerns LPS triggered IL-10 secretion in monocyte-derived macrophages (MdM). Kind of test: MdM assay: LPS-triggered IL-10 (ELISA). It counts as cell-based, human. Conditions: maximal fold change vs LPS only, median across assays. As to the method: This assay evaluates illustrative compounds of the invention for their inhibition of LPS-induced TNFα and LPS triggered IL-10 secretion in monocyte-derived macrophages.
PBMCs are isolated from human blood samples (buffycoats). The buffy coat is aseptically transferred into a 50 mL Falcon tube, and diluted 1/2 in PBS. Falcon tubes are filled with 20 mL Lymphoprep™, on top of which 25 mL of the buffy coat is carefully added, tubes are centrifuged for 35 min at 400 g in temperature controlled centrifuge, without brake, at 25° C. PBMCs are aspirated from the white interface layer between sample and Lymphoprep™. PBMCs are washed five times in PBS.
PBMCs are centrifuged at 300×g for 10 min and resuspended at a density of 1.0E07 cells/80 μL Miltenyi buffer (PBS, pH 7.4, 1% FBS, 2 mM EDTA).
Starting from this point of the protocol all steps are performed on ice. 20 μL of CD14+ micro-beads are added per 1.0E07 cells, the tube is mixed and incubated for 15 min in the fridge at 4° C. Cell suspension volume is adjusted to total volume of 100 mL using Miltenyi buffer, mixed gently and subsequently centrifuged for 10 min at 300× g. Supernantant is discarded and cell pellet is resuspended in 12 mL of Miltenyi buffer.
Four LS columns are placed in the MACS Separator (magnet) from Miltenyi Biotec, and are prewet by rinsing with 3 mL of MACS buffer per column. Three mL of cell suspension is added onto the column (max 1*10^8 of labelled cells/column), and columns are subsequently washed 3 times with 3 mL of Miltenyi buffer.
The columns are removed from the magnets, and 5 mL of Miltenyi buffer are added to the column to flush out the CD14+ fraction by pushing the plunger into the column. The flushed fractions are collected in a fresh 50 mL Falcon and volume is adjusted to 30 mL using Miltenyi buffer, cells are centrifuged for 10 min at 300× g. The obtained cell pellet is resuspended in 10 mL RPMI w/o FBS, and cell density is determined using a hematologic analyser (Sysmex XS-500i).
On day 10, MdMs are triggered and compound is added.
A compound dilution plate is made in 100% DMSO by 3-fold dilution of 10 mM stock solution. An intermediate dilution plate (10× final concentration) is made by diluting the compound dilution plate 50-fold in RPMI medium.
Medium is carefully removed from cell plates using multichannel pipette, and replaced by 80 μL fresh medium. 10 μL of the 10× final concentration compound is added to the cells and incubated for 1 hour at 37° C. before addition of trigger. No trigger conditions/trigger conditions are spiked with equal final DMSO concentrations of 0.2% DMSO. 10 μL of 10×LPS (final conc. 200 ng/mL) solution are added to all wells except for the ‘no trigger wells’ where 10 μL medium is added. Supernatant is collected after 2 h (IL-10 determination) and after 20 h (TNFα determination) of LPS triggering.
Plates are washed three times with PBST, where after 100 μL of Strep-HRP conjugate (0.5 μg/mL final concentration diluted in dilution buffer) is added. Plates are incubated in the dark, at 37° C. for 30 min. Plates are washed three times with PBST. […] 100 μL of substrate solution is added to each well and incubated until brilliant blue color develops. The reaction is stopped by adding 50 μL of 1 M H2SO4, after which absorbance is measured at 450 nm on the SpectraMax i3, Molecular Devices.
To quantify these inductions fold changes (FC) compared to ‘LPS only’ are calculated for each concentration tested and the maximal FC is calculated (IL-10 FCmax):
[formula] wherein ABS=Absorbance measured at 450 nm.
The median maximal FC for test compounds across two or more assays is reported (IL-10FCmax median).
For orientation: ELISA stands for enzyme-linked immunosorbent assay.

The subject of test [2] is LPS-induced TNFα secretion in monocyte-derived macrophages (MdM). Kind of test: MdM assay: LPS-triggered TNFα (ELISA). The format is cell-based, human. Conditions: Homo sapiens, Macrophage, LPS-triggered TNFα inhibition. The essentials: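 TNFα ELISA read on supernatants harvested 20 h after LPS (final 200 ng/mL) stimulation. Cells were day-10 macrophages derived from human blood CD14+ monocytes, exposed to 3-fold compound dilutions for 1 h at 37 °C beforehand, with DMSO held at 0.2%.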

The target in another test is T1, SIK2 (Homo sapiens, UniProt Q9H0K1).
T1 construct: purchased ThermoFisher Scientific PV4792
T1 sequence (Q9H0K1 whole entry): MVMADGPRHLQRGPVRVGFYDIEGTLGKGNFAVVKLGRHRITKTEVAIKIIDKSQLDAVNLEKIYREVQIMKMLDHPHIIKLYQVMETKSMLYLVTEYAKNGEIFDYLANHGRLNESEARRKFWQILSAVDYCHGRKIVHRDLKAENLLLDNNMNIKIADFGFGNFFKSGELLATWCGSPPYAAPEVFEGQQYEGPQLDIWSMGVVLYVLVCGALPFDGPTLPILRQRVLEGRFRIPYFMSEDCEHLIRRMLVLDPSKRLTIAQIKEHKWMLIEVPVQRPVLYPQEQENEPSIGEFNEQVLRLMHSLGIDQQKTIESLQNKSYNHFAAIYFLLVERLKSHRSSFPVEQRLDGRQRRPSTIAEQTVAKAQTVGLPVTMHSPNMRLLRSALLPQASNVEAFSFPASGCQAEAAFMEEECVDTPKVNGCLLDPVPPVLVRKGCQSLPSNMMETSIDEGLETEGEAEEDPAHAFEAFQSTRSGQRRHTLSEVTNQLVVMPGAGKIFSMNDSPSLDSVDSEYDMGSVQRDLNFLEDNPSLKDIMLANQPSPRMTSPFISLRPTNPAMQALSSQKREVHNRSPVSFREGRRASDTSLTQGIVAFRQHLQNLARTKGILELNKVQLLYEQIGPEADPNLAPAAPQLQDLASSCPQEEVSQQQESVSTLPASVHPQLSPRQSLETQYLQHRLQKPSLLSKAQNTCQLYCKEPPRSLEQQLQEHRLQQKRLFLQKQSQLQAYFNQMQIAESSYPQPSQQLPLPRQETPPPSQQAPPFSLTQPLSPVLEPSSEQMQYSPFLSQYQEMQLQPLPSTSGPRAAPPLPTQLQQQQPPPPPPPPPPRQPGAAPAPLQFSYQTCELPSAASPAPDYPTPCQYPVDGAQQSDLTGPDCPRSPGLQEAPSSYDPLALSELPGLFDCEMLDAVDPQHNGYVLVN
Kind of test: biochemical. Conditions: 33P radioactive SIK kinase assay, AMARA peptide, 10 μM ATP. The essentials: (§1)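 AMARA peptide phosphorylation by SIK1–3 is quantified through ^33P uptake from a labeled/unlabeled ATP blend. Staurosporine at 10 μM final defines full inhibition, 1% DMSO the uninhibited signal. Quench uses phosphoric acid; counting follows filter capture.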

The target in the next test is T2, SIK1 (Homo sapiens, UniProt P57059).
T2 construct: purchased Carna Biosciences 02-131
T2 sequence (P57059 whole entry): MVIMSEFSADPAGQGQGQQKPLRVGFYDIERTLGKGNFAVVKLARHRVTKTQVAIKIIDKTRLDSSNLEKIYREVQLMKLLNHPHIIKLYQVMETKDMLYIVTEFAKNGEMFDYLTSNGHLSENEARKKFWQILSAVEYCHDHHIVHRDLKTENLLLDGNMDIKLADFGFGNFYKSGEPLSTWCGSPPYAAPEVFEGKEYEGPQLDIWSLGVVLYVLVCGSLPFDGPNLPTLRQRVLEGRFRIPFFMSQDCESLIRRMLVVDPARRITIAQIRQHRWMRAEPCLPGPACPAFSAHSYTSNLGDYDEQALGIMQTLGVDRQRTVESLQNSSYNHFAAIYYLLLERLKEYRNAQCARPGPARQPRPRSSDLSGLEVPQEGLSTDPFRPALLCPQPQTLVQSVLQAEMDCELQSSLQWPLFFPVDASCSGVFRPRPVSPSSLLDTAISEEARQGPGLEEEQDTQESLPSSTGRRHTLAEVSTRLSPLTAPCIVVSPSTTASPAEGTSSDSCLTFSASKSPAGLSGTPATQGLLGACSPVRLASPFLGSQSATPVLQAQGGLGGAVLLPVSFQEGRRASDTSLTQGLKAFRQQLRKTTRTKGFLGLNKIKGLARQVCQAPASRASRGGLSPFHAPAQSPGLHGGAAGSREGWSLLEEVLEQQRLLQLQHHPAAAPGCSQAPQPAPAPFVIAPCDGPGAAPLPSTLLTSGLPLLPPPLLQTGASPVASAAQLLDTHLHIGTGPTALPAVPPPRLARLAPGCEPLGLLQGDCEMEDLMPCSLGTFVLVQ
Nature of the test: biochemical. Particulars: 33P radioactive SIK kinase assay, AMARA peptide, 10 μM ATP; read-out: SIK1 IC50. The essentials:
as §1

For another test, the target named is T3, SIK3 (Homo sapiens, UniProt Q9Y2K2).
T3 construct: purchased SignalChem S12-11G-100
T3 sequence (Q9Y2K2 whole entry): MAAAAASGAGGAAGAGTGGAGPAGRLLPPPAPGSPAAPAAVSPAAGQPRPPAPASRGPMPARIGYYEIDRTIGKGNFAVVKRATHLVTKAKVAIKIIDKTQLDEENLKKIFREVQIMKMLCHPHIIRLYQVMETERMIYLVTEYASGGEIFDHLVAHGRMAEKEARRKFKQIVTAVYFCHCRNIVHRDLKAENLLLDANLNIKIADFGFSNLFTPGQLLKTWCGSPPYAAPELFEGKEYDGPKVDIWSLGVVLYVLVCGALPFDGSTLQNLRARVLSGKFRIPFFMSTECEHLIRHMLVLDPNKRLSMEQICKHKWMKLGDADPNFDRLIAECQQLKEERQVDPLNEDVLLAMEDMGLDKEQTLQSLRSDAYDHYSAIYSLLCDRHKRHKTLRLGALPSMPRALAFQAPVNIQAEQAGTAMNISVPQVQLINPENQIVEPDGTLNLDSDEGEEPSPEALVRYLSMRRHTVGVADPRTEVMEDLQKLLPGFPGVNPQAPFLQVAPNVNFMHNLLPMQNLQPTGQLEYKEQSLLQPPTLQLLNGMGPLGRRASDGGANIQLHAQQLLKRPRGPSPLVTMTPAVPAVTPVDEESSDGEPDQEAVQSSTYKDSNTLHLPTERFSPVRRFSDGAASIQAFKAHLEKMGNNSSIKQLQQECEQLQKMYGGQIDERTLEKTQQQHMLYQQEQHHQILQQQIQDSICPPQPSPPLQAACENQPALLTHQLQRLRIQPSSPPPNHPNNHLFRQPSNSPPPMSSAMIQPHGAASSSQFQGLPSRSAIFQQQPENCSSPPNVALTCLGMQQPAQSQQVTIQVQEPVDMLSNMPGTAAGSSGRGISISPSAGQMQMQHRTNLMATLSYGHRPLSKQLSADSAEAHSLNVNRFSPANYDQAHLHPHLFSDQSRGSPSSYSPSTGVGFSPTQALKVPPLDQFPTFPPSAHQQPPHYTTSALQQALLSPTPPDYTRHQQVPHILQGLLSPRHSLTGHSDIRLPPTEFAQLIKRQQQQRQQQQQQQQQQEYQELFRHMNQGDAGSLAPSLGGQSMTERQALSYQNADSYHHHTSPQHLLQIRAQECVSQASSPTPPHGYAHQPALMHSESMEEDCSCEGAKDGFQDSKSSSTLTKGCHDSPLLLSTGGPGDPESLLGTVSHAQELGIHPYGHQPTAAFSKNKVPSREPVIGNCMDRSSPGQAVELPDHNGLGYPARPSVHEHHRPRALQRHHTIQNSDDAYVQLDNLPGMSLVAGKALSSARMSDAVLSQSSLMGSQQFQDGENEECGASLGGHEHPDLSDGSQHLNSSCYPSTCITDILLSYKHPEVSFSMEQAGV
Kind of test: biochemical. Put shortly:
as §1

As for `COc1cc(-c2cnc3cc(-c4cn[nH]c4)ccn23)cc(OC)c1C(=O)N[C@H](C)C(F)(F)F` [compound 222, 2,6-dimethoxy-4-[7-(1H-pyrazol-4-yl)imidazo[1,2-a]pyridin-3-yl]-N-[(1R)-2,2,2-trifluoro-1-methyl-ethyl]benzamide], the “IL-10 FCmax median” value in test [1] was “+++ (>4.5)”. This molecule also registered an EC50 in test [2] of 100 to 1000 nM. Also, the IC50 on SIK2, at SIK1 and on SIK3 was 0.01 to 10 nM in each case.

Turning to `COc1cc(-c2cnc3cc(-c4cnn(C)c4)ccn23)cc(Cl)c1C(=O)NCC(F)(F)F` [compound 207, 2-chloro-6-methoxy-4-[7-(1-methylpyrazol-4-yl)imidazo[1,2-a]pyridin-3-yl]-N-(2,2,2-trifluoroethyl)benzamide], the “IL-10 FCmax median” value in test [1] is “++ (>1.5-4.5)”. Also, the EC50 in test [2] lay in the range of 100 to 1000 nM. Besides, the values for the half-maximal inhibitory concentration (IC50) on SIK2, on SIK1 and against SIK3 were 0.01 to 10 nM, 10 to 100 nM and 0.01 to 10 nM, respectively.

Turning to `COc1cc(-n2cnc3cc(-c4cnn(C5CCN(C)CC5)c4)ccc32)cc(OC)c1C(=O)NCC(F)(F)F` [Cpd 46, 2,6-dimethoxy-4-[5-[1-(1-methyl-4-piperidyl)pyrazol-4-yl]benzimidazol-1-yl]-N-(2,2,2-trifluoroethyl)benzamide], in test [1], the “IL-10 FCmax median” value was “++ (>1.5-4.5)”. The molecule further returned an EC50 in test [2] of 0.1 to 100 nM. For the same molecule, the IC50 at SIK2, at SIK1 and against SIK3 was 0.01 to 10 nM each time.

Consider `COc1cc(-n2cnc3cc(-c4cnn(C)c4)ccc32)cc(OC(F)F)c1C(=O)NC1CC1` [Cpd 53, N-cyclopropyl-2-(difluoromethoxy)-6-methoxy-4-[5-(1-methylpyrazol-4-yl)benzimidazol-1-yl]benzamide], for which the “IL-10 FCmax median” value in test [1] is given as “++ (>1.5-4.5)”.

Take `COc1cc(-c2cnc3cc(-c4cc(C)no4)ccn23)cc(OC)c1C(=O)N[C@H](C)C(F)(F)F` [compound 223, 2,6-dimethoxy-4-[7-(3-methylisoxazol-5-yl)imidazo[1,2-a]pyridin-3-yl]-N-[(1R)-2,2,2-trifluoro-1-methyl-ethyl]benzamide]: the “IL-10 FCmax median” value in test [1] is recorded as “+++ (>4.5)”. The molecule further had an EC50 in test [2] of 100 to 1000 nM. In addition, the IC50 at SIK2, at SIK1 and against SIK3 was 10 to 100 nM each time.

Regarding `COc1cc(-c2cnc3cc(-c4cnn(C)c4)ccn23)cc(OC)c1C(=O)N1CC(C#N)C1` [compound 209, 1-[2,6-dimethoxy-4-[7-(1-methylpyrazol-4-yl)imidazo[1,2-a]pyridin-3-yl]benzoyl)azetidine-3-carbonitrile], the “IL-10 FCmax median” value in test [1] is listed as “++ (>1.5-4.5)”. Further, the concentration giving a half-maximal response (EC50) in test [2] fell in the range of 100 to 1000 nM. Besides, the IC50 on SIK2, on SIK1 and against SIK3 was 0.01 to 10 nM each time.

Regarding `COc1cc(-c2cnn3cc(-c4cnn(C)c4)cnc23)cc(OC)c1C(=O)NCC(F)F` [compound 24, N-(2,2-difluoroethyl)-2,6-dimethoxy-4-[6-(1-methylpyrazol-4-yl)pyrazolo[1,5-a]pyrimidin-3-yl]benzamide], in test [1], the “IL-10 FCmax median” value is given as “++ (>1.5-4.5)”. This molecule displayed a half-maximal effective concentration (EC50) in test [2] of 100 to 1000 nM. The results for the IC50 on SIK2, at SIK1 and on SIK3 were 0.01 to 10 nM, 10 to 100 nM and 10 to 100 nM, respectively.

Consider `CCn1cc(-c2cnc3c(c2)ncn3-c2cc(OC)c(C(=O)NCC(F)(F)F)c(OC)c2)cn1` [Cpd 29, 4-[6-(1-ethylpyrazol-4-yl)imidazo[4,5-b]pyridin-3-yl]-2,6-dimethoxy-N-(2,2,2-trifluoroethyl)benzamide], for which the “IL-10 FCmax median” value in test [1] is on record as “++ (>1.5-4.5)”. Also, in test [2], the EC50 was in the range of 100 to 1000 nM. The IC50 on SIK2, at SIK1 and at SIK3 was 10 to 100 nM in each case.

Turning to `COc1cc(-n2cnc3cc(-c4cnn(CCO)c4)ccc32)cc(OC)c1C(=O)NCC(F)(F)F` [compound 33, 4-[5-[1-(2-hydroxyethyl)pyrazol-4-yl]benzimidazol-1-yl]-2,6-dimethoxy-N-(2,2,2-trifluoroethyl)benzamide], the “IL-10 FCmax median” value in test [1] is reported as “++ (>1.5-4.5)”. The same molecule had a half-maximal effective concentration (EC50) in test [2] greater than 5000 nM. The 50% inhibitory concentration (IC50) on SIK2, at SIK1 and against SIK3 was 0.01 to 10 nM throughout.

Regarding `COc1cc(-n2cnc3cc(-c4cnn(C)c4)ccc32)cc(OC)c1C(=O)N[C@@H](C)C(F)(F)F` [compound 80, 2,6-dimethoxy-4-[5-(1-methylpyrazol-4-yl)benzimidazol-1-yl]-N-[(1S)-2,2,2-trifluoro-1-methyl-ethyl]benzamide], in test [1], the “IL-10 FCmax median” value is listed as “++ (>1.5-4.5)”. The EC50 in test [2] lay in the range of 0.1 to 100 nM. In addition, the IC50 on SIK2 is 0.01 to 10 nM; at SIK1, 10 to 100 nM; on SIK3, 10 to 100 nM.

Regarding `COc1cc(-c2cnc3cc(-c4ccc(C#N)nc4)ccn23)cc(OC)c1C(=O)NCC(F)(F)F` [compound 240, 4-[7-(6-cyano-3-pyridyl)imidazo[1,2-a]pyridin-3-yl]-2,6-dimethoxy-N-(2,2,2-trifluoroethyl)benzamide], the “IL-10 FCmax median” value in test [1] is recorded as “+ (≤1.5)”. In test [2], this molecule displayed an EC50 of 100 to 1000 nM. In addition, the IC50 at SIK2 was 10 to 100 nM; on SIK1 it was 100 to 500 nM; at SIK3, 0.01 to 10 nM.

For `CCn1cc(-c2ccc3c(c2)ncn3-c2cc(OC)c(C(=O)NCC(F)F)c(OC)c2)cn1` [compound 11, N-(2,2-difluoroethyl)-4-[5-(1-ethylpyrazol-4-yl)benzimidazol-1-yl]-2,6-dimethoxy-benzamide], the “IL-10 FCmax median” value in test [1] was “++ (>1.5-4.5)”. The molecule also registered an EC50 in test [2] of 100 to 1000 nM. Also, the IC50 lay within 0.01 to 10 nM at SIK2, 10 to 100 nM at SIK1 and 0.01 to 10 nM against SIK3.

Regarding `CCCNC(=O)c1c(OC)cc(-n2cnc3cc(-c4cnn(CC)c4)ccc32)cc1OC` [compound 22, 4-[5-(1-ethylpyrazol-4-yl)benzimidazol-1-yl]-2,6-dimethoxy-N-propyl-benzamide], the “IL-10 FCmax median” value in test [1] was “++ (>1.5-4.5)”. Besides, in test [2], the EC50 fell in the range of 100 to 1000 nM.

In test [2], `COc1cc(-c2cnc3cc(-c4cnn(C)c4)ccn23)cc(OC)c1C(=O)N1CCC(C#N)C1` (centres unmarked) [compound 210, 1-[2,6-dimethoxy-4-[7-(1-methylpyrazol-4-yl)imidazo[1,2-a]pyridin-3-yl]benzoyl]pyrrolidine-3-carbonitrile] gave an EC50 of 100 to 1000 nM. Moreover, the values for the IC50 at SIK2, on SIK1 and at SIK3 were 10 to 100 nM, 10 to 100 nM and 0.01 to 10 nM, respectively.

In general, EC50 refers to the concentration needed to bring the measured effect to its halfway point. A higher EC50 goes with lower potency in that assay. The IC50 is the concentration at which inhibition is half-maximal.
